{"source": "patent US7879795B2", "about": "“Enhancement of tigecycline potency using efflux pump inhibitors” (Mpex Pharmaceuticals, Inc., priority 2004, dated 2011)", "key": {"PAM1723": {"test_system": "PAM1723", "details": "Table 3", "protocol": "Stability in rat and human serum was also evaluated using a bioassay. 320 μg/ml of the test compound was treated with 50% serum for 4 hours.\nBioassays as described in Example 62 and Example 65 were used to evaluate the stability of various compounds in serum and rabbit kidney homogenates."}, "[1]": {"test_system": "PAM 1032, nalB, MexAB-OprM over-expressed", "test": "microbe, parasite or virus in culture", "format": "cell-based, P. aeruginosa", "design": "Tigecycline MIC in the presence of Compound 21: unit not given here", "details": "PAM 1032", "protocol": "(§1) The ability of compound 21 to increase susceptibility to tigecycline was also assessed. The tigecycline potentiating activity of compound 21 was assessed by the checkerboard assay (Antimicrobial Combinations, Antibiotics in Laboratory Medicine, ed. Victor Lorian, M.D., Fourth edition, 1996, pp 333-338, which is incorporated herein by reference in its entirety) using a broth micro-dilution method performed as recommended by the CSLI (Clinical and Laboratory Standards Institute, formerly NCCLS) guidelines (National Committee for Clinical Laboratory Standards 2003. Methods for Dilution Antimicrobial Susceptibility Tests for Bacteria That Grow Aerobically—Sixth Edition; Approved Standard. NCCLS Document M7-A6, Vol 20 No. 2). In this assay, multiple dilutions of the two drugs, compound 21 and tigecycline, were tested alone and in combination, at concentrations equal to, above and below their respective minimal inhibitory concentrations (MICs). […] The stock solution was further diluted in Mueller Hinton Broth (MHB). Stock solutions were stored at −80° C.\n(§2) The checkerboard assay was performed in microtiter plates. Tigecycline was diluted in the x axis, each column containing a single concentration of tigecycline. Compound 21 was diluted in the y axis, each row containing an equal concentration of the EPI. […] The assay was performed in MHB with a final bacterial inoculum of 5×10^5 CFU/ml (from an early-log phase culture). The microtiter plates were incubated for 20 hours at 35° C. and then read using a microtiter plate reader (Molecular Devices) at 650 nm, as well as by visual observation using a microtiter plate-reading mirror.\n(§3) P. aeruginosa strain PAM 1032 was grown in Mueller-Hinton Broth (MHB) at 35° C. under constant aeration. After 20 hours, the inoculum was sub-cultured into fresh MHB and allowed to regrow at 35° C., under constant aeration, for 4 hours. The inoculum was adjusted to ca. 4×10^7 CFU/ml by correlation of absorbance at 600 nm with predetermined plate counts. The inoculum was then diluted 2-fold in 14% hog-gastric mucin (Sigma, St. Louis, Mo.) for a final inoculum concentration of 2×10^7 CFU/ml. […] At 0 and 2 hours following infection, tigecycline was administered by the subcutaneous route and compound 21 was administered by the intraperitoneal route."}, "[2]": {"test_system": "PAM 1753, MexEF-OprN over-expressed", "test": "Tigecycline potentiation checkerboard assay, PAM 1753", "format": "cell-based, P. aeruginosa", "design": "Tigecycline MIC in the presence of Compound 21: unit not given here", "details": "PAM 1753", "protocol": "as §1, §2"}, "[3]": {"test_system": "PAM 1626, Four pumps non-functional", "test": "Tigecycline potentiation checkerboard assay, PAM 1626", "format": "cell-based, P. aeruginosa", "design": "Tigecycline MIC in the presence of Compound 21: unit not given here", "details": "PAM 1626", "protocol": "as §1, §2"}, "[4]": {"test_system": "P. aeruginosa strain PAM 1032", "test": "Mouse model of P. aeruginosa sepsis infection (tigecycline 50% effective dose)", "format": "in vivo", "protocol": "Tigecycline and compound 21 were prepared in sterile 0.9% saline. Seventy Swiss-Webster mice (Harlan laboratories) with body weights ranging from 22 to 25 grams at the start of the study were used. Upon receipt, the animals were housed 5 per cage in a room with a controlled environment and were acclimated to laboratory conditions for at least 24 hours prior to the start of dosing. Animals were provided food and water ad libitum. The health status of the animals was determined during the acclimation period and unhealthy animals were not placed on study. Each animal was identified by marking their tails with indelible ink and each cage was identified by animal, group, and study number.\nas §3, with “route. […] The susceptibility of the test strain (P. aeruginosa PAM1032, […] MexAB-OprM) to tigecycline was 4 ug/ml, the susceptibility of the test strain to tigecycline in the presence of 2.5 μg/mL of compound 21 was 0.25 μg/mL.” for “route.”"}, "[5]": {"test_system": "Klebsiella pneumonia, Proteus mirabilis, Morganella morganii, P. aeruginosa strains", "test": "Tigecycline susceptibility of various bacterial strains in combination with compound 21 (Example 85)", "format": "cell-based", "details": "Example 85, written in present tense", "protocol": "Standard CLSI methods for antimicrobial susceptibility testing, as outlined in National Committee for Clinical Laboratory Standards 2003, Methods for Dilution Antimicrobial Susceptibility Tests for Bacteria That Grow Aerobically—-6th ed., Approved Standard, NCCLS Document M7-A6, Vol 20 No. 2., are used to assess the activity of tigecycline in combination with compound 21. The following strains are tested: • Klebsiella pneumonia: G340, G595, G815, GC7335, GC7736, GC7737, tigecycline resistant mutants derived from G595 and G815 • Proteus mirabilis: G151, GC 7020, GC 6899, GC 6900, GC 7018, GC 7019 • Morganella morganii: G858, G1492, GC7676, GC7677, GC7743, GC7744 • P. aeruginosa: K767, K1523, K1525, XY1, XY3, K153, BXY1, BXY4, K1119, M1, M9, K1455.\nClinical isolates enriched with strains having a decreased susceptibility to tigecycline are also tested."}, "[6]": {"test_system": "Enterobacteriaceae, Acinetobacter, Burkholderia, Stenotrphomonas, Staphylococcus", "details": "Example 86, written in present tense"}}}
{"compound": "NCCC[C@H](N)C(=O)N[C@H](CCc1ccccc1)C(=O)Nc1cnc2ccccc2c1", "note": "[Compound 3, 2-(S),5-Diamino-pentanoic acid [3-phenyl-1-(R)-(quinolin-3-ylcarbamoyl)-propyl]-amide]", "values": [{"measurement": "EPI MPC8 after 4 hours at 37° C., Frosen Human serum", "setting": "PAM1723; 50% human serum", "result": 5}, {"measurement": "EPI MPC8 after 4 hours at 37° C., Frozen Rat serum", "setting": "PAM1723; 50% rat serum", "result": 5}, {"measurement": "EPI MPC8 after 4 hours at 37° C., Saline", "setting": "PAM1723; saline", "result": 5}]}
{"compound": "NCCC[C@H](N)C(=O)N[C@H](Cc1ccc(C(F)(F)F)cc1)C(=O)Nc1cnc2ccccc2c1", "note": "[Compound 21, 2-(S),5-Diamino-pentanoic acid [1-(R)-(quinolin-3-ylcarbamoyl)-2-(4-trifluoromethyl-phenyl)-ethyl]amide]", "values": [{"measurement": "Tigecycline MIC in the presence of Compound 21", "setting": "[1]; Compound 21 0.625 μg/ml", "result": 4}, {"measurement": "Tigecycline MIC in the presence of Compound 21", "setting": "[1]; Compound 21 1.25 μg/ml", "result": 2}, {"measurement": "Tigecycline MIC in the presence of Compound 21", "setting": "[1]; Compound 21 5 μg/ml", "result": 0.5}, {"measurement": "Tigecycline MIC in the presence of Compound 21", "setting": "[1]; Compound 21 10 μg/ml", "result": 0.5}, {"measurement": "Tigecycline MIC in the presence of Compound 21", "setting": "[1]; Compound 21 20 μg/ml", "result": 0.5}, {"measurement": "Tigecycline MIC in the presence of Compound 21", "setting": "[1]; Compound 21 40 μg/ml", "result": 0.5}, {"measurement": "Tigecycline MIC in the presence of Compound 21", "setting": "[1]; Compound 21 […]", "result": 0.5}, {"measurement": "Tigecycline MIC in the presence of Compound 21", "setting": "[2]; Compound 21 0.625 μg/ml", "result": 1}, {"measurement": "Tigecycline MIC in the presence of Compound 21", "setting": "[2]; Compound 21 1.25 μg/ml", "result": 1}, {"measurement": "Tigecycline MIC in the presence of Compound 21", "setting": "[2]; Compound 21 5 μg/ml", "result": 0.25}, {"measurement": "Tigecycline MIC in the presence of Compound 21", "setting": "[2]; Compound 21 10 μg/ml", "result": 0.25}, {"measurement": "Tigecycline MIC in the presence of Compound 21", "setting": "[2]; Compound 21 20 μg/ml", "result": 0.25}, {"measurement": "Tigecycline MIC in the presence of Compound 21", "setting": "[2]; Compound 21 40 μg/ml", "result": 0.25}, {"measurement": "Tigecycline MIC in the presence of Compound 21", "setting": "[2]; Compound 21 […]", "result": 0.25}, {"measurement": "Tigecycline MIC in the presence of Compound 21", "setting": "[3]; Compound 21 0.625 μg/ml", "result": 0.25}, {"measurement": "Tigecycline MIC in the presence of Compound 21", "setting": "[3]; Compound 21 1.25 μg/ml", "result": 0.25}, {"measurement": "Tigecycline MIC in the presence of Compound 21", "setting": "[3]; Compound 21 5 μg/ml", "result": 0.25}, {"measurement": "Tigecycline MIC in the presence of Compound 21", "setting": "[3]; Compound 21 10 μg/ml", "result": 0.25}, {"measurement": "Tigecycline MIC in the presence of Compound 21", "setting": "[3]; Compound 21 20 μg/ml", "result": 0.5}, {"measurement": "Tigecycline MIC in the presence of Compound 21", "setting": "[3]; Compound 21 […]", "result": 0.25}, {"measurement": "50% effective dose of tigecycline in combination with compound 21", "setting": "[4]; mice, tigecycline SC, compound 21 IP at 0 and 2 hours", "result": "approximately 75 mg/k"}, {"measurement": "improvement of tigecycline 50% effective dose", "setting": "[4]; with compound 21", "result": 2.5, "unit": "fold"}, {"measurement": "effect on development of resistance to tigecycline", "setting": "[5]", "result": "reduces the development of resistance"}, {"measurement": "effect on resistance to tigecycline in bacterial strains", "setting": "[5]", "result": "decreases resistance to tigecycline"}, {"measurement": "effect on susceptibility of the strains to tigecycline", "setting": "[5]", "result": "increases the susceptibility of the strains to tigecycline"}, {"measurement": "effect on tigecycline resistance and emergence of resistance", "setting": "[6]", "result": "reduces tigecycline resistance and emergence of resistance"}]}
